# Results published in patent EP0505640B2, “Improved therapeutic method” (ELI LILLY AND COMPANY, priority 1991, dated 1992).
# Like-named read-outs stand apart in the source and are kept apart here.
# Columns and labels:
# bovine FBP = bovine FBP (Bos taurus, UniProt P02702); assay: Folate binding constant, procedure of Dunn and Foster
# Procedure: As noted above, the drug products which can be employed in the present invention include other GAR-transformylase or TS inhibitors which are capable of binding to folate binding protein. Folic acid itself has a binding constant (ng/ml) of 1.8, and lometrexol has a binding constant of 9.7 to bovine FBP. Any GAR-transformylase or TS inhibitor that binds at less than about 500 ng/ml can be utilized in the method of this invention. The folate binding constant for drug products can be readily determined by the general procedure of Dunn and Foster, Clin. Chem., 19 (10), 1101-1105 (1973).
# C3H Mice = assay: Toxicity measured as death of tumor-bearing C3H mice; assay type: in vivo
# Procedure: (§1) In one such test, mice are inoculated with the C3H strain of mammary adenocarcinoma by inserting a 2 mm by 2 mm section of tumor into the axillary region of the mice by trocar. In all experiments, lometrexol was administered intraperitoneally once a day for five consecutive days, starting on the day following tumor implantation. Ten animals were used at each dosage level. Antitumor activity was assessed on day ten by measuring the length and width of the tumor growth using vernier calipers, and the activity was expressed as a percent inhibition of tumor growth.
# [1] = system: nasalpharyngeal carcinoma; conditions: one subject with nasalpharyngeal carcinoma, folic acid 0.5 to 1.0 mg/day, after the 12 months of therapy
# [2] = system: C3H strain of mammary adenocarcinoma; assay: Antitumor activity against implanted C3H mammary adenocarcinoma in mice; assay type: in vivo
# Procedure: as §1
# [3] = read-out: Binding Constant, folate binding protein
# Sequence of bovine FBP (P02702 20-234): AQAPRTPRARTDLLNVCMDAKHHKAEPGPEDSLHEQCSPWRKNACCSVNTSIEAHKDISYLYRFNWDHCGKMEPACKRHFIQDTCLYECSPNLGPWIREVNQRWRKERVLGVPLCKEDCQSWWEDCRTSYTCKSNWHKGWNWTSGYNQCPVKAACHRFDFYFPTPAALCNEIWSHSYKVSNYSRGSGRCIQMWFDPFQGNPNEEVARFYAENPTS
smiles,measurement,setting,value
Nc1nc(O)c2c(n1)NCC(CCc1ccc(C(=O)NC(CCC(=O)O)C(=O)O)o1)C2 (stereo not shown),Kd,bovine FBP; [3],579 nM
Nc1nc(O)c2c(n1)NCC(CCc1ccc(C(=O)NC(CCC(=O)O)C(=O)O)s1)C2 (stereo not shown),Kd,bovine FBP; [3],54.5 nM
Nc1nc(O)c2c(n1)NCC(CCC1CCC(C(=O)NC(CCC(=O)O)C(=O)O)CC1)C2 (stereo not shown),Kd,bovine FBP; [3],57.8 nM
C#CCN(Cc1ccc2[nH]c(N)nc(=O)c2c1)c1ccc(C(=O)NC(CCC(=O)O)C(=O)O)cc1 (stereo not shown),Kd,bovine FBP; [3],25.1 nM
Cc1nc2ccc(CN(C)c3ccc(C(=O)NC(CCC(=O)O)C(=O)O)s3)cc2c(=O)[nH]1 (stereo not shown),Kd,bovine FBP; [3],534 nM
Nc1nc2ncc(CNc3ccc(C(=O)N[C@@H](CCC(=O)O)C(=O)O)cc3)nc2c(=O)[nH]1 [Folic acid],Kd,"bovine FBP; folate binding protein, read-out: Binding Constant (converted)",4.08 nM
"Nc1nc2c(c(=O)[nH]1)CC(CCc1ccc(C(=O)N[C@@H](CCC(=O)O)C(=O)O)cc1)CN2 (stereo partly shown) [Lometrexol, 5,10-dideazatetrahydrofolic acid]",Toxicity (Mice Dead/Total Mice),"C3H Mice; Lometrexol 0.0625 mg/kg i.p. once a day for five days, two weeks on folate-free diet",0/10
same,Toxicity (Mice Dead/Total Mice),"C3H Mice; Lometrexol 0.125 mg/kg i.p. once a day for five days, folate-free diet plus 0.0003% folate in drinking water",0/10
same,Toxicity (Mice Dead/Total Mice),"C3H Mice; Lometrexol 0.125 mg/kg i.p. once a day for five days, two weeks on folate-free diet",0/10
same,Toxicity (Mice Dead/Total Mice),"C3H Mice; Lometrexol 0.25 mg/kg i.p. once a day for five days, folate-free diet plus 0.0003% folate in drinking water",0/10
same,Toxicity (Mice Dead/Total Mice),"C3H Mice; Lometrexol 0.25 mg/kg i.p. once a day for five days, two weeks on folate-free diet",0/10
same,Toxicity (Mice Dead/Total Mice),"C3H Mice; Lometrexol 0.5 mg/kg i.p. once a day for five days, folate-free diet plus 0.0003% folate in drinking water",0/10
same,Toxicity (Mice Dead/Total Mice),"C3H Mice; Lometrexol 0.5 mg/kg i.p. once a day for five days, two weeks on folate-free diet",0/10
same,Toxicity (Mice Dead/Total Mice),"C3H Mice; Lometrexol 1.0 mg/kg i.p. once a day for five days, folate-free diet plus 0.0003% folate in drinking water",0/10
same,Toxicity (Mice Dead/Total Mice),"C3H Mice; Lometrexol 1.0 mg/kg i.p. once a day for five days, two weeks on folate-free diet",8/10
same,Toxicity (Mice Dead/Total Mice),"C3H Mice; Lometrexol 1.0 mg/kg i.p. once a day for five days, two weeks on folate-free diet, listed as lometrexol",lethal to the majority of the mice
same,Toxicity (Mice Dead/Total Mice),"C3H Mice; Lometrexol 2.0 mg/kg i.p. once a day for five days, folate-free diet plus 0.0003% folate in drinking water",0/10
same,Toxicity (Mice Dead/Total Mice),"C3H Mice; Lometrexol 4.0 mg/kg i.p. once a day for five days, folate-free diet plus 0.0003% folate in drinking water",4/10
same,Toxicity (Mice Dead/Total Mice),"C3H Mice; Lometrexol 6.25 mg/kg i.p. once a day for five days, folate-free diet plus 0.003% folate in drinking water",0/10
same,Toxicity (Mice Dead/Total Mice),"C3H Mice; Lometrexol 12.5 mg/kg i.p. once a day for five days, folate-free diet plus 0.003% folate in drinking water",0/10
same,Toxicity (Mice Dead/Total Mice),"C3H Mice; Lometrexol 25 mg/kg i.p. once a day for five days, folate-free diet plus 0.003% folate in drinking water",0/10
same,Toxicity (Mice Dead/Total Mice),"C3H Mice; Lometrexol 50 mg/kg i.p. once a day for five days, folate-free diet plus 0.003% folate in drinking water",0/10
same,clinical evidence of disease,[1],no clinical evidence of disease
same,Antitumor Activity (% Inhibition),"[2]; Lometrexol 0.0625 mg/kg i.p. once a day for five days, two weeks on folate-free diet, assessed day ten",0%
same,Antitumor Activity (% Inhibition),"[2]; Lometrexol 0.125 mg/kg i.p. once a day for five days, folate-free diet plus 0.0003% folate in drinking water, day ten",13%
same,Antitumor Activity (% Inhibition),"[2]; Lometrexol 0.125 mg/kg i.p. once a day for five days, two weeks on folate-free diet, assessed day ten",0%
same,Antitumor Activity (% Inhibition),"[2]; Lometrexol 0.25 mg/kg i.p. once a day for five days, folate-free diet plus 0.0003% folate in drinking water, day ten",26%
same,Antitumor Activity (% Inhibition),"[2]; Lometrexol 0.25 mg/kg i.p. once a day for five days, two weeks on folate-free diet, assessed day ten",21%
same,Antitumor Activity (% Inhibition),"[2]; Lometrexol 0.5 mg/kg i.p. once a day for five days, folate-free diet plus 0.0003% folate in drinking water, day ten",48%
same,Antitumor Activity (% Inhibition),"[2]; Lometrexol 0.5 mg/kg i.p. once a day for five days, two weeks on folate-free diet, assessed day ten",88%
same,Antitumor Activity (% Inhibition),"[2]; Lometrexol 1.0 mg/kg i.p. once a day for five days, folate-free diet plus 0.0003% folate in drinking water, day ten",97%
same,Antitumor Activity (% Inhibition),"[2]; Lometrexol 1.0 mg/kg i.p. once a day for five days, two weeks on folate-free diet, assessed day ten",100%
same,Antitumor Activity (% Inhibition),"[2]; Lometrexol 2.0 mg/kg i.p. once a day for five days, folate-free diet plus 0.0003% folate in drinking water, day ten",98%
same,Antitumor Activity (% Inhibition),"[2]; Lometrexol 4.0 mg/kg i.p. once a day for five days, folate-free diet plus 0.0003% folate in drinking water, day ten",99%
same,Antitumor Activity (% Inhibition),"[2]; Lometrexol 6.25 mg/kg i.p. once a day for five days, folate-free diet plus 0.003% folate in drinking water, day ten",91%
same,Antitumor Activity (% Inhibition),"[2]; Lometrexol 12.5 mg/kg i.p. once a day for five days, folate-free diet plus 0.003% folate in drinking water, day ten",89%
same,Antitumor Activity (% Inhibition),"[2]; Lometrexol 25 mg/kg i.p. once a day for five days, folate-free diet plus 0.003% folate in drinking water, day ten",97%
same,Antitumor Activity (% Inhibition),"[2]; Lometrexol 50 mg/kg i.p. once a day for five days, folate-free diet plus 0.003% folate in drinking water, day ten",96%
same,Kd,bovine FBP,21.9 nM
Nc1nc(O)c2c(n1)NCC(CCCc1ccc(C(=O)NC(CCC(=O)O)C(=O)O)cc1)C2 (stereo not shown) [n = 3 X = H],Kd,bovine FBP,27.3 nM
